Data taken from US20160193139A1, “Composition having A. paniculata for wound healing and skin whitening, and method by using the same” (National Dong Hua University, priority 2013, published 2016).

Key:
[1] = test system: burn wound on back skin of C57BL/6 mice; assay: Animal skin injury (burn wound) model, wound healing; assay type: in vivo; settings: for Wound Area: cream spread on burned site once/day, extract and Andrographolide 0.1 mg/ml, Silver sulfadiazine 1%, mean ± SD
Protocol: These mice were used between 8 to 10 weeks of age and age-matched for each experiment.
A cream matrix containing 1 g polyethylene glycol/poly propylene glycol/poly ethylene glycol (PEG-PPG-PEG; MW=5800; Sigma), 2 ml polyethylene glycol-400 (PEG-400; FCW®, Taiwan), and 3 ml polyethylene glycol-1500 (PEG-1500; FCW®, Taiwan) was formed. The solution of A. paniculata extract and Andrographolide was added into cream matrix and completely mixed (for both of them, the final concentration is 0.1 mg/ml).
Mice were anesthetized by pentobarbital (50 mg/kg) and removed the hair of back. A stainless steel cylinder tool (1 cm in diameter, 0.785 cm^2 cm in area) was heated for 20 sec and attached on back skin of mice for 2 sec. […] The wound area was measured on days 1, 3, 5, 7, 9, 11, 13, 15, 17, 19, and 21 after drug treatment.

HaCaT cells = assay: MTT cell viability assay, HaCaT cells; assay type: cell-based, human; settings: FIG. 1B
Protocol: (§1) HaCaT cell is an immortal human keratinocyte line (CLS order no. 300493) and A375 cell is a human melanoma cell line (ATCC, CRL-1619) that isolated from malignant melanoma. Both cells were cultured in Dulbecco's Modified Eagle Medium (DMEM; Gibco, Carlsbad, Calif., USA) with 10% fetal bovine serum (FBS; Gibco), and 1% Penicillin/Streptomycin (Biowest) in culture incubator at 37° C., 5% CO2. CCD-966SK is a human skin fibroblast (ATCC, CRL-1881) cell line that taken from the breast of patient with invasive ductal carcinoma and cultured in Minimum Essential Medium (MEM; Gibco) with 10% FBS, 1% sodium pyruvate (Biowest), and 1% Penicillin/Streptomycin (Biowest) in culture incubator at 37° C., 5% CO2.
(§2) The 3-(4,5-dimethylthiazol-2-yl)-2,5-diphenyltetrazolium bromide (MTT, Invitrogen) is a colorimetric based assay that is performed to analyze the proliferation of cells. Cells (1×10^4 cells) were seeded in 96 well plates for overnight. […] The media was removed, and formazan was solubilized by adding 100 of DMSO (Sigma-Aldrich) and absorbance was measured at 570 nm using a microplate reader (Thermo Labsystems, Opsys MR, USA). […]

CCD-966SK cells = assay: MTT cell viability assay, CCD-966SK cells; assay type: cell-based, human; settings: 50 μg/ml; 24 and 48 h; FIG. 2B
Protocol: as §1, §2

A375 cell = assay: MTT cell viability assay, A375 cells; assay type: cell-based, human; settings: dose-dependent manner; FIG. 5A
Protocol: as §1, §2

melanin in A375 cells = assay: Melanin assay in A375 cells; assay type: cell-based, human; settings: after normalization with cell number, dose-dependent manner, FIG. 5B
Protocol: Cells (1×10^5 cells) were seeded in 12 well plates and treated with drugs for 24 or 48 hr. Plates were washed with PBS and added 0.5 ml of 1N NaOH, and heating at 100° C. for 1 h. Plates were then centrifuged at 12,000 rpm for 30 min at 25° C. Supernatants (100 μl/well) were added into 96 well plates, and the secretion of melanin was determined by measuring the absorbance at 405 nm using microplate reader (Thermo Labsystems).

C=C1CC[C@@H]2[C@](C)(CO)[C@H](O)CC[C@@]2(C)[C@@H]1C/C=C1/C(=O)OC[C@H]1O [Andrographolide]
wound healing rate compared with silver sulfadiazine-treated mice ([1]; 0.1 mg/ml cream once/day vs Silver sulfadiazine 1%, FIG. 3): two days earlier | Wound Area ([1]; DAY 1): 133.57 ± 28.46 mm^2 | Wound Area ([1]; DAY 3): 111.94 ± 24.09 mm^2 | Wound Area ([1]; DAY 5): 85.15 ± 13.35 mm^2 | Wound Area ([1]; DAY 7): 48.43 ± 5.91 mm^2 | Wound Area ([1]; DAY 9): 28.22 ± 9.40 mm^2 | Wound Area ([1]; DAY 11): 16.46 ± 5.43 mm^2 | Wound Area ([1]; DAY 13): 11.62 ± 4.49 mm^2 | Wound Area ([1]; DAY 15): 6.94 ± 5.04 mm^2 | Wound Area ([1]; DAY 17): 4.12 ± 3.96 mm^2 | Wound Area ([1]; DAY 19): 0 mm^2 | Wound Area ([1]; DAY 21): 0 mm^2 | cell viability of HaCaT cells (HaCaT cells; 50 μg/ml, 24 and 48 h): significantly decreased | cell viability of HaCaT cells (HaCaT cells; low doses (1, 5, and 10 μg/ml), 24 h): significantly enhanced | cell viability of CCD-966SK cells (CCD-966SK cells): significantly decreased | cell viability of A375 cell (A375 cell): significantly inhibited | expression level of melanin (melanin in A375 cells): significantly inhibited
